Data: US11981658B2, “Substituted aminopyridine compounds as EGFR inhibitors” (YUHAN CORPORATION, priority 2021, dated 2024)
Read-outs that look alike come from different tables or passages of the source.

How the values were obtained:
[1] = molecular target: EGFR wildtype (WT) (Homo sapiens, UniProt P00533); assay: Biochemical EGFR kinase inhibition assay (Lance Ultra TR-FRET), wildtype
Method in brief: (§1)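 Kinase activity is measured by TR-FRET phosphopeptide detection. Compounds span 0.003 μM to 10 μM; the 1 h reaction at room temperature is quenched with EDTA, then labelled antibody (2 nM) is incubated 60 min before reading.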

[2] = molecular target: EGFR Del19/C797S (Homo sapiens, UniProt P00533, C797S/DEL746-750); assay: Biochemical EGFR kinase inhibition assay (Lance Ultra TR-FRET), double mutant del19/C797S
Method in brief: as §1

[3] = molecular target: EGFR L858R/C797S (Homo sapiens, UniProt P00533, C797S/L858R); assay: Biochemical EGFR kinase inhibition assay (Lance Ultra TR-FRET), double mutant L858R/C797S
Method in brief: as §1

[4] = molecular target: EGFR L858R/T790M/C797S (Homo sapiens, UniProt P00533, C797S/L858R/T790M); assay: Biochemical EGFR kinase inhibition assay (Lance Ultra TR-FRET), triple mutant L858R/T790M/C797S
Method in brief: as §1

[5] = molecular target: EGFR Del19/T790M/C797S (Homo sapiens, UniProt P00533, C797S/DEL746-750/T790M); assay: Biochemical EGFR kinase inhibition assay (Lance Ultra TR-FRET), triple mutant del19/T790M/C797S
Method in brief: as §1

[6] = ATP at Km, read-out: IC50 WT (nM), Km ATP
[7] = ATP at Km, read-out: IC50 Del19/C797S (nM), Km ATP
[8] = IC50 Del19/C797S (nM), 100 μM ATP
[9] = ATP at Km, read-out: IC50 L858R/C797S (nM), Km ATP
[10] = IC50 L858R/C797S (nM), 100 μM ATP
[11] = ATP at Km, read-out: IC50 L858R/T790M/C797S (nM), Km ATP
[12] = IC50 L858R/T790M/C797S (nM), 100 μM ATP
[13] = ATP at Km, read-out: IC50 Del19/T790M/C797S (nM), Km ATP
[14] = IC50 Del19/T790M/C797S (nM), 100 μM ATP

EGFR L858R/C797S, sequence (P00533 25-1210 C797S/L858R): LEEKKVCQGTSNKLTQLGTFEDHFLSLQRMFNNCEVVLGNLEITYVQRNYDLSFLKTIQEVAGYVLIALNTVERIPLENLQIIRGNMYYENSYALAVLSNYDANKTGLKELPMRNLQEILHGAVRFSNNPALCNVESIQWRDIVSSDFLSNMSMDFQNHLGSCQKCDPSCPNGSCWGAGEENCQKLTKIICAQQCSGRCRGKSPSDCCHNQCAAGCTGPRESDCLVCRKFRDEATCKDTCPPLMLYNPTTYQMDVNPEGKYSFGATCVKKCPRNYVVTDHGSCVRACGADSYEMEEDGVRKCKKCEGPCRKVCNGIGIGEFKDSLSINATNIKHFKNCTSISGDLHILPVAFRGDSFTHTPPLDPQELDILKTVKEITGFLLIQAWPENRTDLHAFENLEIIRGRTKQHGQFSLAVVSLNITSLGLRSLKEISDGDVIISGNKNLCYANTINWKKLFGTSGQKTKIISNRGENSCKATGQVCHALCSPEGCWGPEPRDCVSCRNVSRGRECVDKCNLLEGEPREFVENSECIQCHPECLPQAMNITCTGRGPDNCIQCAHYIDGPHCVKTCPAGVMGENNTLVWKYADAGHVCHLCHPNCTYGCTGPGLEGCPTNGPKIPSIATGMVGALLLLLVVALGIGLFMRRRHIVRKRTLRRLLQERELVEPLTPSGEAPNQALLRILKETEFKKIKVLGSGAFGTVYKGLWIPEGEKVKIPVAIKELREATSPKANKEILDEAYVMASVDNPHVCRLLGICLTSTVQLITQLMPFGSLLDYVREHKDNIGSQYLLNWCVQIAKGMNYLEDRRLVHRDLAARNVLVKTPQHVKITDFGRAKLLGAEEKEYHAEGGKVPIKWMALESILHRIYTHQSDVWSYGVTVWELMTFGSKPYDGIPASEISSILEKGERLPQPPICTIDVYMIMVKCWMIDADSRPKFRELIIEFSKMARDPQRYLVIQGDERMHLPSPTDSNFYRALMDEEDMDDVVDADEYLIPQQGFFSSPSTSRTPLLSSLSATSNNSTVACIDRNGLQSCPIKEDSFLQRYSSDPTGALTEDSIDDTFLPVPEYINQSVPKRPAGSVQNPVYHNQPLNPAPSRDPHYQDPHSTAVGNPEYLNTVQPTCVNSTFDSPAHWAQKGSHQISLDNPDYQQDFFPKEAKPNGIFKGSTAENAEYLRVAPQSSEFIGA
EGFR Del19/T790M/C797S, sequence (P00533 with tags, fused parts or gaps DEL746-750/T790M/C797S): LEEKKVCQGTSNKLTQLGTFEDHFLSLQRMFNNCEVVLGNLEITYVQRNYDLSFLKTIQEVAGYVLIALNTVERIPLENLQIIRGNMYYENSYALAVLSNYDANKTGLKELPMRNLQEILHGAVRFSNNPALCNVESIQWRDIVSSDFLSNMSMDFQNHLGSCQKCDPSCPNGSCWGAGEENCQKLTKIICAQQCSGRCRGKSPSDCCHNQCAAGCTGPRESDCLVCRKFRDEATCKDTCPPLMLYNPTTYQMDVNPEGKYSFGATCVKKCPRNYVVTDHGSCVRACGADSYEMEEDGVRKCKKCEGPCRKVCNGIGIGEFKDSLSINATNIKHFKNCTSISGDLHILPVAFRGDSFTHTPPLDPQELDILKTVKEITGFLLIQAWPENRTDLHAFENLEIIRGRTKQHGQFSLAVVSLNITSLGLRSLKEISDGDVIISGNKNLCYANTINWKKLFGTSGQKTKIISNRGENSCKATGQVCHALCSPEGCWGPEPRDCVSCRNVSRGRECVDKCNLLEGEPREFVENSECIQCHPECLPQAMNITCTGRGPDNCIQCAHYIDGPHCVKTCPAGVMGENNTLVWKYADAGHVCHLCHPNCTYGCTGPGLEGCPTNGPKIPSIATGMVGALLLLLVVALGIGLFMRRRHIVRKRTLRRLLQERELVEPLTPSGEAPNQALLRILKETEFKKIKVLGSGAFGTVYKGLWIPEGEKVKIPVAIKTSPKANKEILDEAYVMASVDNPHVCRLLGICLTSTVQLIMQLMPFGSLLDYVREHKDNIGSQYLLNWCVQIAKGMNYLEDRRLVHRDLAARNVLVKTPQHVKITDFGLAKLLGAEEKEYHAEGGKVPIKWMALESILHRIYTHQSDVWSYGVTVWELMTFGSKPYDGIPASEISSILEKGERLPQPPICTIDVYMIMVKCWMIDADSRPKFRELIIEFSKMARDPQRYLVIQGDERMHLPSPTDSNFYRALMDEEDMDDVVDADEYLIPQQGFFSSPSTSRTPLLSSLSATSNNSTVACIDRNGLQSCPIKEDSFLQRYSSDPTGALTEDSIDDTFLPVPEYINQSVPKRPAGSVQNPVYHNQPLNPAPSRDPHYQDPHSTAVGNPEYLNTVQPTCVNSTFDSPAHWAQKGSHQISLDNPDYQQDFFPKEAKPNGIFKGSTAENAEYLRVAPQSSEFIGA
EGFR Del19/C797S, sequence (P00533 with tags, fused parts or gaps DEL746-750/C797S): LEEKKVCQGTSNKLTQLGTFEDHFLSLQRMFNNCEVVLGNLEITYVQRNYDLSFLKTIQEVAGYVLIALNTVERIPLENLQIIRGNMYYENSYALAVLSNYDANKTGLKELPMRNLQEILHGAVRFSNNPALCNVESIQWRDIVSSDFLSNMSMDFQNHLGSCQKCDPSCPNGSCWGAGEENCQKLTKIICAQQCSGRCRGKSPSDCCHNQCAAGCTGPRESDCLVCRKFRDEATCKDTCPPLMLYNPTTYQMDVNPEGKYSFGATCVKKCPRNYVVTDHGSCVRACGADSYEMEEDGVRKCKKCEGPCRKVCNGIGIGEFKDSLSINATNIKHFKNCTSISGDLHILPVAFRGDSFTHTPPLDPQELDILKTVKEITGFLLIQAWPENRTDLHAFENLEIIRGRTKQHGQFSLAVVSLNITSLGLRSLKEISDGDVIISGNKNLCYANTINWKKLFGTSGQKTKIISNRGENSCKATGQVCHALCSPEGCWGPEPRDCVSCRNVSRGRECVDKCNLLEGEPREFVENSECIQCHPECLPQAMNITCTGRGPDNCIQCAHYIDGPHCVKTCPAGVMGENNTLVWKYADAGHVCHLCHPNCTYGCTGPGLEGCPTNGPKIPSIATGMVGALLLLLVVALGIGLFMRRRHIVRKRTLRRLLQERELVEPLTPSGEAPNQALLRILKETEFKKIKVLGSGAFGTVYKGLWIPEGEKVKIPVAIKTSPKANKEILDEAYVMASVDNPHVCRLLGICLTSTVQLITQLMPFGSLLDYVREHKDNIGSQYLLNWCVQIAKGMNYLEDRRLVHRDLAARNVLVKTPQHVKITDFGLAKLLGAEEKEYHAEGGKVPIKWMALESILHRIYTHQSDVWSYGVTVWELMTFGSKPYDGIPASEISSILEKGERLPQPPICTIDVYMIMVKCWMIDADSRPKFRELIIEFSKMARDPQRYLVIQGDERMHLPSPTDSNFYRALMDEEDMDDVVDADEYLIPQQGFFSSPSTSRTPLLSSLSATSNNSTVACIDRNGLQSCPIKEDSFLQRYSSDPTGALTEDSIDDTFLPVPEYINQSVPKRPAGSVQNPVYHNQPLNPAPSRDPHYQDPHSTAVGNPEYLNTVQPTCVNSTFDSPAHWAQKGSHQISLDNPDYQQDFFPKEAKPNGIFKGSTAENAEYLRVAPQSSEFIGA
EGFR L858R/T790M/C797S, sequence (P00533 25-1210 T790M/C797S/L858R): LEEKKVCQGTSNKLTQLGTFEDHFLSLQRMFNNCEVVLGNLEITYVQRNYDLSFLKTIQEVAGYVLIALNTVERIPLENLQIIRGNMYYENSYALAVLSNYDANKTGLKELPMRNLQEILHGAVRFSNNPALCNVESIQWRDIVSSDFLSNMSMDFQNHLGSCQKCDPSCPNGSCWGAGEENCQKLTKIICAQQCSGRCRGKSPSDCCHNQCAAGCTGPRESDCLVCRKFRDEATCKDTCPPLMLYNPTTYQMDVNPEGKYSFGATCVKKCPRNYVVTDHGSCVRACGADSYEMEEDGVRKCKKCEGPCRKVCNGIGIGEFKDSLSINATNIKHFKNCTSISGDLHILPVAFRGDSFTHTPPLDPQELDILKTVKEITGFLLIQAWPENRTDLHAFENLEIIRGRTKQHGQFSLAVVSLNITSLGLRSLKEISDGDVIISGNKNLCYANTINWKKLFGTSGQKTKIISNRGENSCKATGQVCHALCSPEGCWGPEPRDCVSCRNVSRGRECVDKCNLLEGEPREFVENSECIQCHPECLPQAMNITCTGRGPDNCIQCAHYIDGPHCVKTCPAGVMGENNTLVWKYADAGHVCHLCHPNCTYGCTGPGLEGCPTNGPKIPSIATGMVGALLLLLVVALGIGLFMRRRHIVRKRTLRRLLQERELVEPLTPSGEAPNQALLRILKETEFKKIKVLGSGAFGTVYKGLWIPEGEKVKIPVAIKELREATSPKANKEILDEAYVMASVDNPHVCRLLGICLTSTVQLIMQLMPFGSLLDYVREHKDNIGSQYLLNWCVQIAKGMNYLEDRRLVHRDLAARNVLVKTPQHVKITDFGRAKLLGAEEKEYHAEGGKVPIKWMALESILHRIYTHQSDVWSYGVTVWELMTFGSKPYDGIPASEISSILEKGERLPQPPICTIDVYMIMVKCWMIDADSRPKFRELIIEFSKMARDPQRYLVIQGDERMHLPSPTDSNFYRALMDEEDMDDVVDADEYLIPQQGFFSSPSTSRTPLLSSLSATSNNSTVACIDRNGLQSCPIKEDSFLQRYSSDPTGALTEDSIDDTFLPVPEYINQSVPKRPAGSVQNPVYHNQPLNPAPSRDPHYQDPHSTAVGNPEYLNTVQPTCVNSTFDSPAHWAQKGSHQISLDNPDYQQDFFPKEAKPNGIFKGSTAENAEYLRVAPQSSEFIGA

Row | SMILES | IC50 [1, 6] [nM] | IC50 ([1]; IC50 WT (nM), 100 μM ATP) [nM] | IC50 [2, 7] [nM] | IC50 [2, 8] [nM] | IC50 [3, 9] [nM] | IC50 [3, 10] [nM] | IC50 [4, 11] [nM] | IC50 [4, 12] [nM] | IC50 [5, 13] [nM] | IC50 [5, 14] [nM] | IC50 ([1]; Km ATP, read-out: IC50 WT (nM), Km ATP) [nM] | IC50 ([2]; Km ATP, read-out: IC50 Del19/C797S (nM), Km ATP) [nM] | IC50 ([3]; Km ATP, read-out: IC50 L858R/C797S (nM), Km ATP) [nM] | IC50 ([4]; Km ATP, read-out: IC50 L858R/T790M/C797S (nM), Km ATP) [nM] | IC50 ([5]; Km ATP, read-out: IC50 Del19/T790M/C797S (nM), Km ATP) [nM]
1 | CC1(CO)CCN(c2cc(Nc3ccnc(-c4cnn(S(=O)(=O)C5CC5)c4)n3)ncc2C#Cc2cccc(C(=O)N3CCOCC3)c2)CC1 [Example 261, (3-((6-((2-(1-(Cyclopropylsulfonyl)-1H-pyrazol-4-yl)pyrimidin-4-yl)amino)-4-(4-(hydroxymethyl)-4-methylpiperidin-1-yl)pyridin-3-yl)ethynyl)phenyl)(morpholino)methanone] | 6.2 | 2500 | 1.3 | 1 | 1.3 | 4.2 | 0.5 | 0.6 | 1.2 | 0.6 | – | – | – | – | –
2 | CN1CCN(Cc2ccc(C#Cc3cnc(Nc4ccnc(-c5cnn(S(=O)(=O)C6CC6)c5)n4)cc3N3CCC(C)(CO)CC3)cc2)CC1 [Example 164, (1-(2-((2-(1-(Cyclopropylsulfonyl)-1H-pyrazol-4-yl)pyrimidin-4-yl)amino)-5-((4-((4-methylpiperazin-1-yl)methyl)phenyl)ethynyl)pyridin-4-yl)-4-methylpiperidin-4-yl)methanol] | 1.5 | 236 | 0.9 | 1.6 | 0.6 | 2.2 | 0.2 | 0.5 | 0.7 | 0.6 | – | – | – | – | –
3 | CN1CCN(Cc2ccc(C#Cc3cnc(Nc4ccnc(-c5cnn(S(=O)(=O)C6CC6)c5)n4)cc3NC[C@H]3CC[C@](C)(O)CC3)cc2)CC1 [Example 363, (1r,4r)-4-(((2-((2-(1-(Cyclopropylsulfonyl)-1H-pyrazol-4-yl)pyrimidin-4-yl)amino)-5-((4-((4-methylpiperazin-1-yl)methyl)phenyl)ethynyl)pyridin-4-yl)amino)methyl)-1-methylcyclohexan-1-ol] | – | > 10000 | – | 8.2 | – | 94.9 | – | 2.4 | – | 1.2 | – | – | – | – | –
4 | CC1(CO)CCN(c2cc(Nc3ccnc(-c4cnn(S(=O)(=O)C5CC5)c4)n3)ncc2C#CC2(O)CCCC2)CC1 [Example 177, 1-((6-((2-(1-(Cyclopropylsulfonyl)-1H-pyrazol-4-yl)pyrimidin-4-yl)amino)-4-(4-(hydroxymethyl)-4-methylpiperidin-1-yl)pyridin-3-yl)ethynyl)cyclopentan-1-ol] | 17.7 | 4870 | 2 | 2.5 | 7.5 | 66.5 | 0.4 | 0.7 | 0.6 | 0.5 | – | – | – | – | –
5 | Cn1cc(C#Cc2cnc(Nc3ccnc(-c4cnn(S(=O)(=O)C5CC5)c4)n3)cc2N2CCC(CCO)CC2)c(C(F)(F)F)n1 [Example 91, 2-(1-(2-((2-(1-(Cyclopropylsulfonyl)-1H-pyrazol-4-yl)pyrimidin-4-yl)amino)-5-((1-methyl-3-(trifluoromethyl)-1H-pyrazol-4-yl)ethynyl)pyridin-4-yl)piperidin-4-yl)ethan-1-ol] | – | > 10000 | – | 76.8 | – | 166 | – | 13.9 | – | 5.6 | – | – | – | – | –
6 | CC1(CO)CCN(c2cc(Nc3ccnc(-c4cnn(S(=O)(=O)C5CC5)c4)n3)ncc2C#Cc2cnn3c2CN(CC(F)F)CC3)CC1 [Example 151, (1-(2-((2-(1-(Cyclopropylsulfonyl)-1H-pyrazol-4-yl)pyrimidin-4-yl)amino)-5-((5-(2,2-difluoroethyl)-4,5,6,7-tetrahydropyrazolo[1,5-a]pyrazin-3-yl)ethynyl)pyridin-4-yl)-4-methylpiperidin-4-yl)methanol] | 29.4 | > 10000 | 4.2 | 3.5 | 8.6 | 57.8 | 1.1 | 3 | 2.4 | 2.6 | – | – | – | – | –
7 | Cn1cnc(C#Cc2cnc(Nc3ccnc(-c4cnn(S(=O)(=O)C5CC5)c4)n3)cc2N2CCC(O)CC2)n1 [Example 214, 1-(2-((2-(1-(Cyclopropylsulfonyl)-1H-pyrazol-4-yl)pyrimidin-4-yl)amino)-5-((1-methyl-1H-1,2,4-triazol-3-yl)ethynyl)pyridin-4-yl)piperidin-4-ol] | – | > 10000 | – | 109 | – | 274 | – | 4 | – | 1.4 | – | – | – | – | –
8 | CC1(CO)CCN(c2cc(Nc3ccnc(-c4cnn(S(=O)(=O)C5CC5)c4)n3)ncc2C#Cc2cccc(C(=O)N3CCOCC3)n2)CC1 [Example 265, (6-((6-((2-(1-(Cyclopropylsulfonyl)-1H-pyrazol-4-yl)pyrimidin-4-yl)amino)-4-(4-(hydroxymethyl)-4-methylpiperidin-1-yl)pyridin-3-yl)ethynyl)pyridin-2-yl)(morpholino)methanone] | 7.6 | 6520 | 0.8 | 1.1 | 0.9 | 9.1 | 0.3 | 0.8 | 0.8 | 0.9 | – | – | – | – | –
9 | O=S(=O)(C1CC1)n1cc(-c2nccc(Nc3cc(N[C@H]4CC[C@@H](CO)CC4)c(C#CC4C[C@@H]5CC[C@@H]4O5)cn3)n2)cn1 (some centres unmarked) [Example 422, ((1s,4s)-4-((5-((7-Oxabicyclo[2.2.1]heptan-2-yl)ethynyl)-2-((2-(1-(cyclopropylsulfonyl)-1H-pyrazol-4-yl)pyrimidin-4-yl)amino)pyridin-4-yl)amino)cyclohexyl)methanol] | – | 6510 | – | 2.6 | – | 59.4 | – | 0.5 | – | 0.4 | 10.5 | 2.6 | 3.2 | 0.4 | 0.9
10 | Cn1cc(C#Cc2cnc(Nc3ccnc(-c4cnn(S(=O)(=O)C5CC5)c4)n3)cc2N2CCCC(O)C2)cn1 (centres unmarked) [Example 6, 1-(2-((2-(1-(Cyclopropylsulfonyl)-1H-pyrazol-4-yl)pyrimidin-4-yl)amino)-5-((1-methyl-1H-pyrazol-4-yl)ethynyl)pyridin-4-yl)piperidin-3-ol] | – | 6020 | – | 5.1 | – | 24.1 | – | 4.2 | – | 0.5 | – | – | – | – | –
11 | O=C(N1CCC(C#Cc2cnc(Nc3ccnc(-c4cnn(S(=O)(=O)C5CC5)c4)n3)cc2NC2CCC(CO)CC2)C1)C(F)(F)F (centres unmarked) [Example 408, 1-(3-((6-((2-(1-(Cyclopropylsulfonyl)-1H-pyrazol-4-yl)pyrimidin-4-yl)amino)-4-(((1s,4s)-4-(hydroxymethyl)cyclohexyl)amino)pyridin-3-yl)ethynyl)pyrrolidin-1-yl)-2,2,2-trifluoroethan-1-one] | – | 6570 | – | 2.1 | – | 26 | – | 0.2 | – | 0.1 | – | – | – | – | –
12 | CC(C)(O)C1CCN(c2cc(Nc3ccnc(-c4cnn(S(=O)(=O)C5CC5)c4)n3)ncc2C#Cc2cnn(C(F)(F)F)c2)CC1 [Example 329, 2-(1-(2-((2-(1-(Cyclopropylsulfonyl)-1H-pyrazol-4-yl)pyrimidin-4-yl)amino)-5-((1-(trifluoromethyl)-1H-pyrazol-4-yl)ethynyl)pyridin-4-yl)piperidin-4-yl)propan-2-ol] | 700 | > 10000 | 81.8 | 1080 | 47.6 | 125 | 1.7 | 3 | 21.2 | 5.9 | – | – | – | – | –
